The structures appear in SMILES notation. Results filed as inconclusive are left out.

This experiment has as its system washed human platelets, SFLLRN aggregation after wash, transmittance. Nature of the experiment: irreversible platelet aggregation inhibition after washout, late-stage follow-up, mechanism study for PDI inhibitor project, cell-based, aggregometer, SFLLRN stimulus, single point, dry powder (AID 652274). The settings on record: at 30 µM.

Consider `C/C1=C\C[C@H](OC(=O)c2ccc(O)cc2)/C(C)=C/[C@@H](O)C(C)(C)CCC1`, for which the platelet aggregation inhibition after wash (%), stronger effect = higher value was 100%.

Values taken from PubChem BioAssay AID652274 (Broad Institute, 2013).
